Source: patent US7022738B2, “α-ketoamide derivative and use thereof” (Senju Pharmaceutical Co., Ltd., priority 2002, dated 2006)

How the values were obtained:
[1] = Permeability test with Caco-2 cells; type: in vitro ADME; settings: human, Caco-2 monolayer, apical to basolateral, 30 and 60 minutes, read-out: apparent permeation coefficient (Papp)
Experimental: Permeability Test with Caco-2 Cells
0.5×10^6/cm^2 of Caco-2 cells (ATCC Catalog No. HTB-37, Manassas, Va., USA) were seeded into Transwell (polycarbonate filter: pore diameter 0.4 μm; culture area 0.33 cm^2; available from Costar Co.), and incubated in Dulbecco's modified Eagle's minimum essential medium (DMEM; available from Fisher Scientific International Inc.) for 21 to 30 days under the conditions of 37° C., 5% CO2 and 95% relative humidity, whereby a monolayer cell was prepared. The confluence of such a monolayer cell was evaluated by measuring trans epithelial electronic resistance (TEER). […] Based on the quantification results, apparent permeation coefficient (Papp) was calculated according to the formula: Papp=(δQ/δt)×(1/60AC0). • Papp: apparent permeation coefficient (cm/sec) • δQ/δt: permeation velocity (pmol/min) • A: area of monolayer cell=0.33 cm^2 • C0: initial concentration at apical membrane side (pmol/mL)

melting point: 107.6 to 109.9 °C | Papp A→B at 60 min, 10 μM [1]: 17 ×10⁻⁶ cm/s
SMILES: CCCCNC(=O)C(=O)[C@H](CC(C)C)NC(=O)[C@@H](NS(=O)(=O)c1ccc(F)cc1)C(C)C [Compound 1, (3S)-N-Butyl-3-((2S)-2-(((4-fluorophenyl)sulfonyl)amino)-3-methylbutanoylamino)-5-methyl-2-oxohexanamide]
